Where two headings read alike, the source gives them in different places.
Molecular target: PRMT5/MEP50 complex (Homo sapiens (Human), UniProt O14744)
Experiment: PRMT5:MEP50 FlashPlate Assay (histone H4 peptide substrate, plus and minus MTA)
Type: biochemical
Procedure: The PRMT5 inhibitory activity of compounds of the present invention was determined using either a PRMT5:MEP50 FlashPlate Assay (Reaction Biology Corporation) or a PRMT5:MEP50 HotSpot Assay (Reaction Biology Corporation).
1. PRMT5:MEP50 FlashPlate Assay

[1] = IC50 + 2 μM MTA (nM), in the presence of 2 μM MTA
[2] = in the absence of MTA, read-out: IC50

Sequence of PRMT5/MEP50 complex (O14744 2-637): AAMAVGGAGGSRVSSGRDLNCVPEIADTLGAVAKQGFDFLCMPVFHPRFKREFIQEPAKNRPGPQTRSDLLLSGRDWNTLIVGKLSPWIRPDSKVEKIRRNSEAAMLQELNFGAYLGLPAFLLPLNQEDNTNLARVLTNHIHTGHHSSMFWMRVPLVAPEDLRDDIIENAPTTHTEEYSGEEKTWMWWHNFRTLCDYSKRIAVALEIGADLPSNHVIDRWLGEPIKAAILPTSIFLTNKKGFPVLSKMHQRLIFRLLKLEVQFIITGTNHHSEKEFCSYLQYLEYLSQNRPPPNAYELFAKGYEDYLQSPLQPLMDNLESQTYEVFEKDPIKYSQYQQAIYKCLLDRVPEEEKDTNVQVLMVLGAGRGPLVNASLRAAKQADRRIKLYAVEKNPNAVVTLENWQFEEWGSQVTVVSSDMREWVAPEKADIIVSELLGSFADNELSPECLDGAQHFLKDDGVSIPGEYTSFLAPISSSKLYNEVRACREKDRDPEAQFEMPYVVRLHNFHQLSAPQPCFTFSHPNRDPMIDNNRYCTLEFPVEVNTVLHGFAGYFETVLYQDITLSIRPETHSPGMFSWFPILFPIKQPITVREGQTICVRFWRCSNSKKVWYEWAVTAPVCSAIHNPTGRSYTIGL
Sequence of PRMT5/MEP50 complex (Q9BQA1 2-342 partner): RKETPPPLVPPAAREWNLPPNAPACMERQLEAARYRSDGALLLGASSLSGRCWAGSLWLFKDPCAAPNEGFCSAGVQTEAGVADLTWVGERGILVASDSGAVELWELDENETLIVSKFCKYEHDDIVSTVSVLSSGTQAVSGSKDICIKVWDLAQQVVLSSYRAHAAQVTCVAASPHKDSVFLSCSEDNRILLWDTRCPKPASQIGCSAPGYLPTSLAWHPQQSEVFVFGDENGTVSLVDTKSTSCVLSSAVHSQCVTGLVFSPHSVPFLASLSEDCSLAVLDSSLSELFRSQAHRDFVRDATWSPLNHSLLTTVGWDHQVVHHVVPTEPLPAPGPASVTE

NCc1n[nH]c(=O)c2ccc(C3CCOC3)cc12 (racemic) [Example 5-2, (R,S)-4-(aminomethyl)-6-(THF-3-yl)phthalazin-1(2H)-one]
IC50 [1]: 57000 nM | IC50 [2]: > 100000 nM

NCc1n[nH]c(=O)c2cc(-c3ccccn3)ccc12 [Example 1-4, 4-(aminomethyl)-7-(pyridin-2-yl)phthalazin-1(2H)-one]
IC50 [1]: 39000 nM | IC50 [2]: > 100000 nM

NCc1n[nH]c(=O)c2ccc(-c3cccnc3)cc12 [Example 1-5, 4-(aminomethyl)-6-(pyridin-3-yl)phthalazin-1(2H)-one]
IC50 [1]: 1400 nM | IC50 [2]: 34800 nM

Cn1cc(-c2ccc3c(CN)n[nH]c(=O)c3c2)cn1 [Example 1-8, 4-(aminomethyl)-7-(1-methyl-1H-pyrazol-4-yl)phthalazin-1(2H)-one]
IC50 [1]: 10000 nM | IC50 [2]: > 100000 nM

NCc1n[nH]c(=O)c2ccc(-c3cncs3)cc12 [Example 3-1, 4-(aminomethyl)-6-(thiazol-5-yl)phthalazin-1(2H)-one]
IC50 [1]: 3700 nM | IC50 [2]: 89600 nM

NCc1n[nH]c(=O)c2ccc(-c3ccnnc3)cc12 [Example 3-2, 4-(aminomethyl)-6-(pyridazin-4-yl)phthalazin-1(2H)-one]
IC50 [1]: 42000 nM | IC50 [2]: 10000 nM

CCc1ccc(-c2ccc3c(=O)[nH]nc(CN)c3c2)cn1 [Example 3-3, 4-(aminomethyl)-6-(6-ethylpyridin-3-yl)phthalazin-1(2H)-one]
IC50 [1]: 25000 nM | IC50 [2]: 10000 nM

Cc1cc(-c2ccc3c(=O)[nH]nc(CN)c3c2)cnc1C [Example 3-4, 4-(aminomethyl)-6-(5,6-dimethylpyridin-3-yl)phthalazin-1(2H)-one]
IC50 [1]: 1400 nM | IC50 [2]: 38300 nM

Cc1ccc(-c2ccc3c(=O)[nH]nc(CN)c3c2)cn1 [Example 3-5, 4-(aminomethyl)-6-(6-methylpyridin-3-yl)phthalazin-1(2H)-one]
IC50 [1]: 7400 nM | IC50 [2]: 87900 nM

NCc1n[nH]c(=O)c2ccc(-c3cnc4ccccc4c3)cc12 [Example 3-6, 4-(aminomethyl)-6-(quinolin-3-yl)phthalazin-1(2H)-one]
IC50 [1]: 5100 nM | IC50 [2]: 47100 nM

NCc1n[nH]c(=O)c2ccc(-c3ccc(C(F)(F)F)nc3)cc12 [Example 3-8, 4-(aminomethyl)-6-(6-(trifluoromethyl)pyridin-3-yl)phthalazin-1(2H)-one]
IC50 [1]: > 1e+06 nM | IC50 [2]: > 1e+06 nM

Cc1c(-c2ccc3c(=O)[nH]nc(CN)c3c2)cnn1C [Example 3-9, 4-(aminomethyl)-6-(1,5-dimethyl-1H-pyrazol-4-yl)phthalazin-1(2H)-one]
IC50 [1]: 33 nM | IC50 [2]: 1230 nM

Cc1cncc(-c2ccc3c(=O)[nH]nc(CN)c3c2)c1 [Example 3-10, 4-(aminomethyl)-6-(5-methylpyridin-3-yl)phthalazin-1(2H)-one]
IC50 [1]: 100 nM | IC50 [2]: 3910 nM

Cc1ncc(-c2ccc3c(=O)[nH]nc(CN)c3c2)cn1 [Example 3-11, 4-(aminomethyl)-6-(2-methylpyrimidin-5-yl)phthalazin-1(2H)-one]
IC50 [1]: 5000 nM | IC50 [2]: 131000 nM

NCc1n[nH]c(=O)c2ccc(-c3cnc(C(F)(F)F)nc3)cc12 [Example 3-12, 4-(aminomethyl)-6-(2-(trifluoromethyl)pyrimidin-5-yl)phthalazin-1(2H)-one]
IC50 [1]: 210000 nM | IC50 [2]: > 1e+06 nM

CCc1cncc(-c2ccc3c(=O)[nH]nc(CN)c3c2)c1 [Example 3-13, 4-(aminomethyl)-6-(5-ethylpyridin-3-yl)phthalazin-1(2H)-one]
IC50 [1]: 110 nM | IC50 [2]: 1420 nM

CC(C)c1cncc(-c2ccc3c(=O)[nH]nc(CN)c3c2)c1 [Example 3-14, 4-(aminomethyl)-6-(5-isopropylpyridin-3-yl)phthalazin-1(2H)-one]
IC50 [1]: 17 nM | IC50 [2]: 413 nM

CCn1cc(-c2ccc3c(=O)[nH]nc(CN)c3c2)cn1 [Example 3-15, 4-(aminomethyl)-6-(1-ethyl-1H-pyrazol-4-yl)phthalazin-1(2H)-one]
IC50 [1]: 650 nM | IC50 [2]: 18700 nM

NCc1n[nH]c(=O)c2ccc(-c3cnn4ccccc34)cc12 [Example 3-16, 4-(aminomethyl)-6-(pyrazolo[1,5-a]pyridin-3-yl)phthalazin-1(2H)-one]
IC50 [1]: 13 nM | IC50 [2]: 186 nM

CC(C)n1cc(-c2ccc3c(=O)[nH]nc(CN)c3c2)cn1 [Example 3-17, 4-(aminomethyl)-6-(1-isopropyl-1H-pyrazol-4-yl)phthalazin-1(2H)-one]
IC50 [1]: 770 nM | IC50 [2]: 15100 nM

Cc1ncccc1-c1ccc2c(=O)[nH]nc(CN)c2c1 [Example 3-18, 4-(aminomethyl)-6-(2-methylpyridin-3-yl)phthalazin-1(2H)-one]
IC50 [1]: 33000 nM | IC50 [2]: > 1e+06 nM

Cc1ccncc1-c1ccc2c(=O)[nH]nc(CN)c2c1 [Example 3-19, 4-(aminomethyl)-6-(4-methylpyridin-3-yl)phthalazin-1(2H)-one]
IC50 [1]: 180 nM | IC50 [2]: 6360 nM

Cn1nc(C(F)(F)F)cc1-c1ccc2c(=O)[nH]nc(CN)c2c1 [Example 3-20, 4-(aminomethyl)-6-(1-methyl-3-(trifluoromethyl)-1H-pyrazol-5-yl)phthalazin-1(2H)-one]
IC50 [1]: 53000 nM

Cc1cc(-c2ccc3c(=O)[nH]nc(CN)c3c2)[nH]n1 [Example 3-21, 4-(aminomethyl)-6-(5-methyl-1H-pyrazol-3-yl)phthalazin-1(2H)-one]
IC50 [1]: 1800 nM | IC50 [2]: 39400 nM

Cc1nn(C)cc1-c1ccc2c(=O)[nH]nc(CN)c2c1 [Example 3-22, 4-(aminomethyl)-6-(1,3-dimethyl-1H-pyrazol-4-yl)phthalazin-1(2H)-one]
IC50 [1]: 35000 nM | IC50 [2]: > 100000 nM

CCCn1cc(-c2ccc3c(=O)[nH]nc(CN)c3c2)cn1 [Example 3-23, 4-(aminomethyl)-6-(1-propyl-1H-pyrazol-4-yl)phthalazin-1(2H)-one]
IC50 [1]: 230 nM | IC50 [2]: 6430 nM

Cc1nn(C)c(C)c1-c1ccc2c(=O)[nH]nc(CN)c2c1 [Example 3-24, 4-(aminomethyl)-6-(1,3,5-trimethyl-1H-pyrazol-4-yl)phthalazin-1(2H)-one]
IC50 [1]: 20000 nM | IC50 [2]: > 100000 nM

Cn1cc(-c2ccc3c(=O)[nH]nc(CN)c3c2)c(C(F)(F)F)n1 [Example 3-25, 4-(aminomethyl)-6-(1-methyl-3-(trifluoromethyl)-1H-pyrazol-4-yl)phthalazin-1(2H)-one]
IC50 [1]: 71000 nM | IC50 [2]: > 100000 nM

CC(C)CCn1cc(-c2ccc3c(=O)[nH]nc(CN)c3c2)cn1 [Example 3-26, 4-(aminomethyl)-6-(1-isopentyl-1H-pyrazol-4-yl)phthalazin-1(2H)-one]
IC50 [1]: 1600 nM | IC50 [2]: 20600 nM

CC(C)Cn1cc(-c2ccc3c(=O)[nH]nc(CN)c3c2)cn1 [Example 3-27, 4-(aminomethyl)-6-(1-isobutyl-1H-pyrazol-4-yl)phthalazin-1(2H)-one]
IC50 [1]: 4200 nM | IC50 [2]: 59000 nM

NCc1n[nH]c(=O)c2ccc(-c3cnco3)cc12 [Example 3-28, 4-(aminomethyl)-6-(oxazol-5-yl)phthalazin-1(2H)-one]
IC50 [1]: > 100000 nM | IC50 [2]: > 100000 nM

Cn1cc(-c2ccc3c(=O)[nH]nc(CN)c3c2)c2cccnc21 [Example 3-29, 4-(aminomethyl)-6-(1-methyl-1H-pyrrolo[2,3-b]pyridin-3-yl)phthalazin-1(2H)-one]
IC50 [1]: 10000 nM

— patent publication US11479551B2, “MTA-cooperative PRMT5 inhibitors” (Mirati Therapeutics, Inc., priority 2019, dated 2022)
